According to patent US20250073226A1, “USE OF OPIOID FOR TREATMENT OF AUTISM SPECTRUM DISORDERS” (priority 2021, published 2025):
Where “and” joins values, the source holds several entries; their conditions need not be identical. Equal entries are not always repeated. Marks after values point to notes of the source that are not given here.

What was measured:
[1] = system: valproic acid model mice (VPA model); assay: Social interaction test in valproic acid model mice; format: in vivo, ICR mice; conditions: single s.c. dose
From the text: Since ASD-like symptoms such as social impairment and cognitive dysfunction are observed, it is one of the most widely used the ASD model mice.
As the sociality evaluation, a method called a social interaction test was used. In the Social Interaction Test, two mice are placed in one cage, and how many seconds a target mouse (Test mouse) performs sniffing, which is social behavior, on another mouse (Intruder mouse) is quantified.

VPA model [2] = assay: Confirmation of continuous effect: social behavior in VPA model 3 or 12 hours after administration; format: in vivo, mice; conditions: 0.003 mg/kg s.c.
Protocol: Saline or buprenorphine was subcutaneously administered to the VPA model in the same manner as in Example 1, and the amount of social behavior for 20 minutes from 3 hour after administration or for 20 minutes from 12 hours after administration was quantified. The improvement effect in social impairment by administration of 0.003 mg/kg of buprenorphine was observed even 3 hours and 12 hours after administration.

VPA model [3] = assay: Antagonist test with naloxone in VPA model; format: in vivo, mice; conditions: naloxone hydrochloride 1 mg/kg s.c. 15 minutes before buprenorphine 0.003 mg/kg s.c.
Protocol: In the same manner as in Example 1, to the VPA model, Saline or a MOR selective antagonist, naloxone hydrochloride was subcutaneously administered so as to be 1 mg/kg as a hydrochloride, and 15 minutes after that, 0.003 mg/kg of buprenorphine was subcutaneously administered, and the amount of social behavior for 1 hour from 20 minutes after administration of buprenorphine was quantified.

nucleus accumbens (NAc) = assay: Brain activation: c-Fos positive cells in nucleus accumbens; format: in vivo, mice; conditions: VPA model, 1 hour after administration
Protocol: (§1) Saline or buprenorphine at 0.0003, 0.003, or 0.03 mg/kg was administered to the VPA model, and 1 hour after that, the brain was extracted and immunostained with an anti-c-Fos antibody, and the number of c-Fos positive cells in nucleus accumens (NAc) and medial prefrontal cortex, which are brain regions known to promote social behavior, and dorsomedial periaqueductal gray (dmPAG), which is a brain region known to reduce social behavior and to be involved in the expression of analgesic effects, was quantified as the number of activated nerve cells.

medial prefrontal cortex = assay: Brain activation: c-Fos positive cells in medial prefrontal cortex; format: in vivo, mice; conditions: VPA model, 1 hour after administration
Protocol: as §1

[4] = system: dorsomedial periaqueductal gray (dmPAG); assay: Brain activation: c-Fos positive cells in dorsomedial periaqueductal gray; format: in vivo, mice; conditions: VPA model, 1 hour after administration
Protocol: as §1

mice = conditions: Non-patent Document 28, cited from earlier work
[5] = Pharmacokinetic: drug concentrations in plasma by LC-MS after subcutaneous administration; conditions: for concentration at 0.5 h: Plasma concentration 0.5 hr; for concentration at 1 h: Plasma concentration 1 hr; for concentration at 3 h: Plasma concentration 3 hr; for concentration at 12 h: Plasma concentration 12 hr; for concentration at 24 h: Plasma concentration 24 hr
[6] = Estimation of buprenorphine maximum plasma concentration in humans by proportional calculation; conditions: human, other: transdermal, 10 ug/kg
Protocol: As described above, preferred maximum plasma concentrations in ASD applications in mice are in the range of 26.6 pg/mL (at the time of administration of 0.3 pg/kg) to 2360 μg/mL (at the time of administration of 30p/kg) (preferably more than about 26.6 pg/mL and less than about 2360 μg/mL).

[7] = ICR mice, buprenorphine 0.1 μg/kg s.c., individual samples
[8] = ICR mice, buprenorphine 0.3 μg/kg s.c., individual samples
[9] = ICR mice, buprenorphine 3 μg/kg s.c., individual samples
[10] = ICR mice, buprenorphine 10 μg/kg s.c., individual samples
[11] = ICR mice, buprenorphine 30 μg/kg s.c., individual samples
[12] = ICR, mouse, plasma, sc, 0.1 μg/kg, ICR mice, buprenorphine 0.1 μg/kg s.c., Mean
[13] = ICR, mouse, plasma, sc, 0.1 μg/kg, ICR mice, buprenorphine 0.1 μg/kg s.c., individual samples
[14] = ICR, mouse, plasma, sc, 0.3 μg/kg, ICR mice, buprenorphine 0.3 μg/kg s.c., Mean
[15] = ICR, mouse, plasma, sc, 0.3 μg/kg, ICR mice, buprenorphine 0.3 μg/kg s.c., individual samples
[16] = ICR, mouse, plasma, sc, 1 μg/kg, ICR mice, buprenorphine 1 μg/kg s.c., Measured value
[17] = ICR, mouse, plasma, sc, 3 μg/kg, ICR mice, buprenorphine 3 μg/kg s.c., Mean
[18] = ICR, mouse, plasma, sc, 3 μg/kg, ICR mice, buprenorphine 3 μg/kg s.c., individual samples
[19] = ICR, mouse, plasma, sc, 10 μg/kg, ICR mice, buprenorphine 10 μg/kg s.c., Mean
[20] = ICR, mouse, plasma, sc, 10 μg/kg, ICR mice, buprenorphine 10 μg/kg s.c., individual samples
[21] = ICR, mouse, plasma, sc, 30 μg/kg, ICR mice, buprenorphine 30 μg/kg s.c., Mean
[22] = ICR, mouse, plasma, sc, 30 μg/kg, ICR mice, buprenorphine 30 μg/kg s.c., individual samples

CO[C@]12CC[C@@]3(C[C@@H]1[C@](C)(O)C(C)(C)C)[C@H]1Cc4ccc(O)c5c4[C@@]3(CCN1CC1CC1)[C@H]2O5 [buprenorphine, 21-cyclopropyl-7-a-[(S)-1-hydroxy-1,2,2-trimethylpropyl]-6,14-endo-ethano-6,7,8,14 tetrahydrooripavine]
improvement effect in social impairment at a high dose ([1]; high dose close to the analgesic dose): reduced the improvement effect in social impairment | improvement effect in social impairment ([1]; low dose of less than 1/10 of the dose of maximum analgesic effect, 20 minutes from 1 hour after administration): significant improvement effect in social impairment | improvement effect in social impairment 3 hours after administration (VPA model [2]; 20 minutes from 3 hour after administration): observed | improvement effect in social impairment 12 hours after administration (VPA model [2]; 20 minutes from 12 hours after administration): observed | improvement effect in social impairment with combined use of naloxone (VPA model [3]): antagonized by combined use of naloxone | number of activated nerve cells (c-Fos positive cells) (nucleus accumbens (NAc); 0.003 mg/kg): significantly increased | number of activated nerve cells (c-Fos positive cells) (nucleus accumbens (NAc); 0.03 mg/kg): significantly increased | number of activated nerve cells (c-Fos positive cells) (medial prefrontal cortex; 0.003 mg/kg): significantly increased | number of activated nerve cells (c-Fos positive cells) (medial prefrontal cortex; 0.03 mg/kg): significantly increased | number of activated nerve cells (c-Fos positive cells) ([4]; 0.003 mg/kg): no change | number of activated nerve cells (c-Fos positive cells) ([4]; 0.03 mg/kg): significantly increased | dose at which the analgesic effect was maximum (mice): 1 mg/kg | minimum dose at which the analgesic effect is observed (mice; subcutaneous administration): 0.01 mg/kg | Plasma concentration 0.5 hr [5, 7]: 6.85 pg/mL and 6.52 pg/mL | Plasma concentration 1 hr [5, 7]: 4.66 pg/mL and 5.36 pg/mL | Plasma concentration 3 hr [5, 7]: BLQ (BLQ: LLOQ (lower limit of quantitation: 2 pg/mL) or less) | Plasma concentration 12 hr [5, 7]: BLQ (BLQ: LLOQ (lower limit of quantitation: 2 pg/mL) or less) | Plasma concentration 24 hr [5, 7]: BLQ (BLQ: LLOQ (lower limit of quantitation: 2 pg/mL) or less) | Plasma concentration 0.5 hr [5, 8]: 26 pg/mL and 30.9 pg/mL | Plasma concentration 1 hr [5, 8]: 13.7 pg/mL and 16.5 pg/mL | Plasma concentration 3 hr [5, 8]: 5.08 pg/mL and 4.87 pg/mL | Plasma concentration 12 hr [5, 8]: BLQ (BLQ: LLOQ (lower limit of quantitation: 2 pg/mL) or less) | Plasma concentration 24 hr [5, 8]: BLQ (BLQ: LLOQ (lower limit of quantitation: 2 pg/mL) or less) | Cmax ([5]; ICR mice, buprenorphine 1 μg/kg s.c.): 0.067 ng/mL | Plasma concentration 0.5 hr [5, 9]: 260 pg/mL and 271 pg/mL | Plasma concentration 1 hr [5, 9]: 119 pg/mL and 127 pg/mL | Plasma concentration 3 hr [5, 9]: 47.6 pg/mL and 83.3 pg/mL | Plasma concentration 12 hr [5, 9]: 0.00358 ng/mL and 0.00346 ng/mL | Plasma concentration 24 hr [5, 9]: BLQ (BLQ: LLOQ (lower limit of quantitation: 2 pg/mL) or less) | Cmax ([5]; ICR mice, buprenorphine 10 μg/kg s.c.): 0.67 ng/mL | Plasma concentration 0.5 hr [5, 10]: 711* pg/mL and 666* pg/mL | Plasma concentration 1 hr [5, 10]: 471* pg/mL and 367* pg/mL | Plasma concentration 3 hr [5, 10]: 145 pg/mL and 135 pg/mL | Plasma concentration 12 hr [5, 10]: 0.0171 ng/mL and 0.0271 ng/mL and 0.00669 ng/mL | Plasma concentration 24 hr [5, 10]: BLQ (BLQ: LLOQ (lower limit of quantitation: 2 pg/mL) or less) | Cmax ([5]; ICR mice, buprenorphine 30 μg/kg s.c.): 2.36 ng/mL | Plasma concentration 0.5 hr [5, 11]: 2560* pg/mL and 2770* pg/mL | Plasma concentration 1 hr [5, 11]: 1480* pg/mL and 1670* pg/mL | Plasma concentration 3 hr [5, 11]: 436* pg/mL and 494* pg/mL | Plasma concentration 12 hr [5, 11]: 0.0312 ng/mL and 0.0727 ng/mL and 0.0313 ng/mL | Plasma concentration 24 hr [5, 11]: 0.00768 ng/mL and 0.0042 ng/mL | Cmax ([5]; ICR, mouse, plasma, sc, 0.1 ug/kg): 0.00778 ng/mL | concentration at 0.5 h [5, 12]: 0.00778 ng/mL | concentration at 0.5 h [5, 13]: 0.00998 ng/mL | concentration at 1 h [5, 12]: 0.00485 ng/mL | concentration at 1 h [5, 13]: 0.00452 ng/mL | concentration at 3 h [5, 12]: 0.001 ng/mL | concentration at 3 h [5, 13]: 0.00299 ng/mL | concentration at 12 h [5, 12]: 0 ng/mL | concentration at 24 h [5, 12]: 0 ng/mL | Cmax ([5]; ICR, mouse, plasma, sc, 0.3 ug/kg): 0.0266 ng/mL | concentration at 0.5 h [5, 14]: 0.0266 ng/mL | concentration at 0.5 h [5, 15]: 0.0228 ng/mL | concentration at 1 h [5, 14]: 0.0148 ng/mL | concentration at 1 h [5, 15]: 0.0143 ng/mL | concentration at 3 h [5, 14]: 0.00477 ng/mL | concentration at 3 h [5, 15]: 0.00436 ng/mL | concentration at 12 h [5, 14]: 0 ng/mL | concentration at 24 h [5, 14]: 0 ng/mL | Cmax ([5]; ICR, mouse, plasma, sc, 1 ug/kg): 0.067 ng/mL | concentration at 0.5 h [5, 16]: 0.067 ng/mL | concentration at 1 h [5, 16]: 0.025 ng/mL | concentration at 3 h [5, 16]: 0.02 ng/mL | Cmax ([5]; ICR, mouse, plasma, sc, 3 ug/kg): 0.268 ng/mL | concentration at 0.5 h [5, 17]: 0.268 ng/mL | concentration at 0.5 h [5, 18]: 0.274 ng/mL | concentration at 1 h [5, 17]: 0.126 ng/mL | concentration at 1 h [5, 18]: 0.132 ng/mL | concentration at 3 h [5, 17]: 0.0641 ng/mL | concentration at 3 h [5, 18]: 0.0613 ng/mL | concentration at 12 h [5, 17]: 0.00312 ng/mL | concentration at 12 h [5, 18]: 0.00231 ng/mL | concentration at 24 h [5, 17]: 0 ng/mL | Cmax ([5]; ICR, mouse, plasma, sc, 10 ug/kg): 0.67 ng/mL | concentration at 0.5 h [5, 19]: 0.67 ng/mL | concentration at 0.5 h [5, 20]: 0.632 ng/mL | concentration at 1 h [5, 19]: 0.399 ng/mL | concentration at 1 h [5, 20]: 0.358 ng/mL | concentration at 3 h [5, 19]: 0.147 ng/mL | concentration at 3 h [5, 20]: 0.16 ng/mL | concentration at 12 h [5, 19]: 0.017 ng/mL | concentration at 24 h [5, 19]: 0.000777 ng/mL | concentration at 24 h [5, 20]: 0.00233 ng/mL | Cmax ([5]; ICR, mouse, plasma, sc, 30 ug/kg): 2.36 ng/mL | concentration at 0.5 h [5, 21]: 2.36 ng/mL | concentration at 0.5 h [5, 22]: 1.76 ng/mL | concentration at 1 h [5, 21]: 1.49 ng/mL | concentration at 1 h [5, 22]: 1.32 ng/mL | concentration at 3 h [5, 21]: 0.447 ng/mL | concentration at 3 h [5, 22]: 0.412 ng/mL | concentration at 12 h [5, 21]: 0.0451 ng/mL | concentration at 24 h [5, 21]: 0.00551 ng/mL | concentration at 24 h [5, 22]: 0.00464 ng/mL | Cmax [6]: 0.084 to 0.176 ng/mL
